The numbers were not newly measured in article PMC12840679, “Rational Design, Synthesis and Pharmacological Evaluation of Chalcones as Dual-Acting Compounds—Histamine H3 Receptor Ligands and MAO-B Inhibitors” (International Journal of Molecular Sciences, 2026), which cites them from elsewhere.

For orientation: Ki means the dissociation constant of the complex between target and ligand, obtained from inhibition or displacement.

The target in this data set is hH3R (Homo sapiens, UniProt Q9Y5N1). To be noted: HEK293 cells.
hH3R, sequence (Q9Y5N1 whole entry): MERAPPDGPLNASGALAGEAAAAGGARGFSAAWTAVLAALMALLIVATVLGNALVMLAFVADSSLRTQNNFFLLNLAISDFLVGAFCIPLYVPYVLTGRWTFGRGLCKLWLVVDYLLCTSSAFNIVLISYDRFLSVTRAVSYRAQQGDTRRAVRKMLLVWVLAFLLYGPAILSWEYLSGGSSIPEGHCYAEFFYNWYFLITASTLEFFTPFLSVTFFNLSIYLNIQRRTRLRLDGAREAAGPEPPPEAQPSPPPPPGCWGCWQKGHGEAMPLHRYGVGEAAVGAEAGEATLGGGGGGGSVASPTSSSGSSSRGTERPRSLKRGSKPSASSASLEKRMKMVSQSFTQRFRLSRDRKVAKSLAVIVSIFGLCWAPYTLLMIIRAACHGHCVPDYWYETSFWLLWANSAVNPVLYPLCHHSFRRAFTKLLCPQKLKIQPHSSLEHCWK

As to `CC(C)(C)c1ccc(OCCCN2CCCCC2)cc1` [DL76], the Ki was 58 nM.
